Measured values: PubChem BioAssay AID248 (DTP/NCI, 2004)
Several values for one entry are separate records, joined by “and”; a condition that tells them apart may be missing. Identical values can stand only once. Toxic doses and inconclusive results are not listed.

System: L1210 leukemia ip in BDF1 mice, survival T/C
Experiment: NCI In Vivo Anticancer Drug Screen. Data for tumor model L1210 Leukemia (intraperitoneal) in B6D2F1 (BDF1) mice
Details: endpoint: mean survival time, higher = longer survival
In short: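 Transplanted-tumor mice were given test agent; controls received vehicle only. Survival readings from the two groups were divided (treated over control).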

[1] = dose: 100.0 mg/kg/injection, schedule: Q04DX003 (ip), vehicle: Klucel (hydroxypropylcellulose) (HPC)
[2] = dose: 400.0 mg/kg/injection, schedule: Q04DX003 (ip), vehicle: Klucel (hydroxypropylcellulose) (HPC)
[3] = dose: 200.0 mg/kg/injection, schedule: Q04DX003 (ip), vehicle: Klucel (hydroxypropylcellulose) (HPC)

CC1(C)N=C(N)N=C(N)N1c1ccc(CCCCc2ccc(S(=O)(=O)F)cc2Cl)c(Cl)c1
T/C (dose: 3.12 mg/kg/injection, schedule: Q01DX009 (ip), vehicle: Klucel (hydroxypropylcellulose) (HPC)): 102 % of control | T/C (dose: 3.12 mg/kg/injection, schedule: Q04DX003 (ip), vehicle: Klucel (hydroxypropylcellulose) (HPC)): 97 % of control | T/C (dose: 6.25 mg/kg/injection, schedule: Q01DX009 (ip), vehicle: Klucel (hydroxypropylcellulose) (HPC)): 100 % of control | T/C (dose: 6.25 mg/kg/injection, schedule: Q01DX009 (ip), vehicle: saline): 116 % of control | T/C (dose: 6.25 mg/kg/injection, schedule: Q04DX003 (ip), vehicle: Klucel (hydroxypropylcellulose) (HPC)): 105 % of control | T/C (dose: 7.26 mg/kg/injection, schedule: Q01DX009 (ip), vehicle: saline): 111 % of control | T/C (dose: 7.26 mg/kg/injection, schedule: Q04DX003 (ip), vehicle: saline): 115 % of control | T/C (dose: 10.89 mg/kg/injection, schedule: Q01DX009 (ip), vehicle: saline): 117 % of control | T/C (dose: 12.5 mg/kg/injection, schedule: Q01DX009 (ip), vehicle: Klucel (hydroxypropylcellulose) (HPC)): 105 % of control | T/C (dose: 12.5 mg/kg/injection, schedule: Q04DX003 (ip), vehicle: Klucel (hydroxypropylcellulose) (HPC)): 105 % of control | T/C (dose: 24.0 mg/kg/injection, schedule: Q01DX009 (ip), vehicle: saline with Tween-80): 122 % of control | T/C (dose: 25.0 mg/kg/injection, schedule: Q01DX009 (ip), vehicle: Klucel (hydroxypropylcellulose) (HPC)): 107 % of control and 122 % of control | T/C (dose: 25.0 mg/kg/injection, schedule: Q04DX003 (ip), vehicle: Klucel (hydroxypropylcellulose) (HPC)): 115 % of control | T/C (dose: 50.0 mg/kg/injection, schedule: Q04DX003 (ip), vehicle: Klucel (hydroxypropylcellulose) (HPC)): 112 % of control | T/C (dose: 75.0 mg/kg/injection, schedule: Q01DX009 (ip), vehicle: saline with Tween-80): 98 % of control | T/C (dose: 75.0 mg/kg/injection, schedule: Q01DX009 (ip), vehicle: saline): 116 % of control | T/C (dose: 100.0 mg/kg/injection, schedule: Q01DX009 (ip), vehicle: saline): 88 % of control | T/C [1]: 118 % of control | T/C (dose: 150.0 mg/kg/injection, schedule: Q01DX009 (ip), vehicle: saline): 96 % of control | T/C (dose: 150.0 mg/kg/injection, schedule: Q04DX003 (ip), vehicle: saline with Tween-80): 117 % of control | T/C (dose: 200.0 mg/kg/injection, schedule: Q01DX009 (ip), vehicle: Klucel (hydroxypropylcellulose) (HPC)): 109 % of control | T/C (dose: 200.0 mg/kg/injection, schedule: Q04DX003 (ip), vehicle: saline): 120 % of control | T/C (dose: 300.0 mg/kg/injection, schedule: Q01DX009 (ip), vehicle: saline): 98 % of control | T/C (dose: 300.0 mg/kg/injection, schedule: Q04DX003 (ip), vehicle: Klucel (hydroxypropylcellulose) (HPC)): 152 % of control | T/C (dose: 300.0 mg/kg/injection, schedule: Q04DX003 (ip), vehicle: saline): 152 % of control | T/C [2]: 113 % of control | T/C (dose: 450.0 mg/kg/injection, schedule: Q04DX003 (ip), vehicle: saline): 111 % of control

CCCCCCCCCC(O)CCCCC (configuration not stated)
T/C (dose: 100.0 mg/kg/injection, schedule: Q01DX009 (ip), vehicle: saline with Tween-80): 103 % of control | T/C [1]: 98 % of control | T/C (dose: 200.0 mg/kg/injection, schedule: Q01DX009 (ip), vehicle: saline with Tween-80): 107 % of control | T/C [3]: 97 % of control | T/C [2]: 101 % of control

CCCC#CC(=O)OCCCC
T/C (dose: 100.0 mg/kg/injection, schedule: Q04DX002 (ip), vehicle: saline with Tween-80): 93 % of control | T/C (dose: 200.0 mg/kg/injection, schedule: Q04DX002 (ip), vehicle: saline with Tween-80): 90 % of control | T/C (dose: 400.0 mg/kg/injection, schedule: Q04DX002 (ip), vehicle: saline with Tween-80): 90 % of control

Cc1ncc(CC(=O)O)c2c1OC(C)(C)OC2
T/C (dose: 100.0 mg/kg/injection, schedule: Q01DX001 (ip), vehicle: carboxymethylcellulose (CMC)): 101 % of control | T/C (dose: 200.0 mg/kg/injection, schedule: Q01DX001 (ip), vehicle: carboxymethylcellulose (CMC)): 106 % of control | T/C (dose: 400.0 mg/kg/injection, schedule: Q01DX001 (ip), vehicle: carboxymethylcellulose (CMC)): 98 % of control

O=C1CC2CCCCC2c2ccccc21 (configuration not stated)
T/C (dose: 12.5 mg/kg/injection, schedule: Q01DX001 (ip), vehicle: saline): 114 % of control | T/C (dose: 25.0 mg/kg/injection, schedule: Q01DX001 (ip), vehicle: saline): 102 % of control | T/C (dose: 50.0 mg/kg/injection, schedule: Q01DX001 (ip), vehicle: saline): 100 % of control

CCCCCCCCCCCCCCCCOc1ccc(OC)cc1
T/C [1]: 102 % of control | T/C [3]: 92 % of control | T/C [2]: 92 % of control

Cc1ccccc1OB(Oc1ccccc1C)Oc1ccccc1C
T/C (dose: 100.0 mg/kg/injection, schedule: Q01DX001 (ip), vehicle: saline): 101 % of control | T/C (dose: 200.0 mg/kg/injection, schedule: Q01DX001 (ip), vehicle: saline): 109 % of control | T/C (dose: 400.0 mg/kg/injection, schedule: Q01DX001 (ip), vehicle: saline): 95 % of control
